The structures appear in SMILES notation.

Consider 27 compounds from patent US8211892B2, “Tetrahydroquinoxaline urea derivatives” (Sanofi-Aventis, priority 2008, dated 2012).

For series [1], the target named is T1, recombinant 11βHSD1 protein (Homo sapiens, UniProt P28845).
T1 construct: made in house; host or cells: Saccharomyces cerevisiae
The series is described as follows: SPA (Scintillation Proximity Assay) test of in vitro inhibition of the enzyme 11βHSD1, 384-well format. The format is biochemical. The following applies: 3H-cortisone and NADPH, SPA beads, cortisol formed; read-out: IC50 (concentration which inhibits 50% of the activity of 11βHSD1). From the text: The compounds according to the invention formed the subject of pharmacological assays which make it possible to determine their inhibiting effect on the enzyme 11βHSD1, which is involved in the metabolism of lipids and the metabolism of glucose.
These assays consisted in measuring the in vitro inhibiting activity of the compounds of the invention on the enzyme 11βHSD1 by virtue of an SPA (Scintillation Proximity Assay) test in 384-well format. The recombinant 11βHSD1 protein was produced in the yeast S. cerevisiae. The reaction was carried out by incubating the enzyme in the presence of ^3H-cortisone and of NADPH, in the absence or in the presence of an increasing concentration of inhibitor. SPA beads coupled to an antimouse antibody, which are preincubated with an anticortisol antibody, made it possible to measure the amount of cortisol formed during the reaction.

Series [2] deals with T2, 11βHSD1 in the eyes (Homo sapiens, UniProt P28845).
T2 construct: The 11βHSD1 is located in the nonpigmented epithelial calls; host or cells: healthy volunteers (in vivo, ocular tissue)
The following applies: healthy volunteers, treatment for seven days; cited from earlier work.

T1 sequence (P28845 whole entry, species assumed): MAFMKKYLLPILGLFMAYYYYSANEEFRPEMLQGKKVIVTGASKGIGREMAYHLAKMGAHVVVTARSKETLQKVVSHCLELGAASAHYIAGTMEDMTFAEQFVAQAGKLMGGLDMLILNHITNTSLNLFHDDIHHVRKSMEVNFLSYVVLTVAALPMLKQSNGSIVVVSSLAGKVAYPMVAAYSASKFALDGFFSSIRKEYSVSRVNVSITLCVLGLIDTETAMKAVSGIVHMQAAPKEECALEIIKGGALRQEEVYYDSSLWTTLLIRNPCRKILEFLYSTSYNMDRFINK
T2 sequence (P28845 whole entry): as the sequence (P28845 whole entry, species assumed) above

As for `CCS(=O)(=O)N1CCN(c2ccc(N3CCN(C(=O)N[C@H]4C5CC6CC4C[C@@](C(N)=O)(C6)C5)c4ccccc43)nc2)CC1` [Compound No. 149, Trans-4-[5-(4-(Ethanesulphonyl)Piperazin-1-yl)Pyridin-2-yl]-3,4-dihydro-2H-quinoxaline-1-carboxylic Acid (5-carbamoyladamantan-2-yl)Amide], the melting point amounted to 175 °C.

The compound `CCS(=O)(=O)N1CCN(c2ccc(N3CCN(C(=O)N[C@H]4C5CC6CC4C[C@@](O)(C6)C5)c4ccccc43)cc2)CC1` [compound 34, trans-4-[4-(4-(Ethanesulphonyl)Piperazin-1-yl)Phenyl]-3,4-dihydro-2H-quinoxaline-1-carboxylic Acid (5-hydroxyadamantan-2-yl)Amide] yielded a melting point of 138 to 160 °C.

`CC(C)(C)N1CCC(c2ccc(N3CCN(C(=O)N[C@H]4C5CC6CC4C[C@@](C(N)=O)(C6)C5)c4ccccc43)nc2)CC1` [compound 170, Trans-4-(1′-(tert-Butyl)-1′,2′,3′,4′,5′,6′-hexahydro-[3,4′]bipyridinyl-6-yl)-3,4-dihydro-2H-quinoxaline-1-carboxylic Acid (5-carbamoyladamantan-2-yl)Amide] returned a melting point of 228 °C.

Take `CC(C)CN1CCN(c2ccc(N3CCN(C(=O)N[C@H]4C5CC6CC4C[C@@](C(N)=O)(C6)C5)c4ccccc43)nc2)CC1` [compound 158, Trans-4-[5-(4-Isobutylpiperazin-1-yl)Pyridin-2-yl]-3,4-dihydro-2H-quinoxaline-1-carboxylic Acid (5-carbamoyladamantan-2-yl)Amide]: the melting point was found to be 209 °C.

Compound `N#C[C@]12CC3CC(C1)[C@H](NC(=O)N1CCN(c4ccc(N5CCN(S(=O)(=O)C6CC6)CC5)cn4)c4ccccc41)C(C3)C2` [compound 165, Trans-4-[5-(4-(Cyclopropanesulphonyl)Piperazin-1-yl)Pyridin-2-yl]-3,4-dihydro-2H-quinoxaline-1-carboxylic Acid (5-cyanoadamantan-2-yl)Amide] returned a melting point of 188 °C.

As for `CC(C)Oc1ccc(-c2ccc(N3CCN(C(=O)NC4C5CC6CC4CC(C(N)=O)(C6)C5)c4ccccc43)cc2)nc1` (centres unmarked) [compound 85], the melting point was in the range of 193 to 194 °C. Besides, the IC50 in series [1] is 7 nM.

For `NC(=O)C12CC3CC(C1)C(NC(=O)N1CCN(c4ccc(N5CCN(S(=O)(=O)C6CCNCC6)CC5)cc4)c4ccccc41)C(C3)C2` (centres unmarked) [compound 95], the melting point is 230 °C. Also, the IC50 in series [1] was found to be 8 nM.

On to `CS(=O)(=O)N1CCC2(CCN(c3ccc(N4CCN(C(=O)NC5C6CC7CC5CC(O)(C7)C6)c5ccccc54)cc3)C2)C1` (centres unmarked) [compound 132], for which the melting point was determined as 127 °C. In addition, the IC50 in series [1] came to 187 nM.

`CS(=O)(=O)N1CCN(c2ccc(N3CCN(C(=O)N[C@H]4C5CC6CC4C[C@@](CO)(C6)C5)c4ccccc43)cc2)CC1` [Compound No. 21, Trans-4-[4-(4-(Methanesulphonyl)Piperazin-1-yl)Phenyl]-3,4-dihydro-2H-quinoxaline-1-carboxylic Acid (5-(hydroxymethyl)Adamantan-2-yl)Amide] returned a melting point of 160 °C.

In turn, `CC(C)(C)N1CCN(c2ccc(N3CCN(C(=O)NC4C5CC6CC4CC(C(N)=O)(C6)C5)c4ccccc43)cc2)CC1` (centres unmarked) [compound 96] returned a melting point of 228 °C. Moreover, the IC50 in series [1] amounted to 19 nM.

Take `COCCOCCS(=O)(=O)N1CCN(c2ccc(N3CCN(C(=O)NC4C5CC6CC4CC(C(N)=O)(C6)C5)c4ccccc43)cc2)CC1` (centres unmarked) [compound 125]: the IC50 in series [1] came to 7 nM.

In turn, `CC(C)N1CCN(C(=O)c2ccc(-c3ccc(N4CCN(C(=O)NC5C6CC7CC5CC(O)(C7)C6)c5ccccc54)cc3)nc2)CC1` (centres unmarked) [compound 27] came in with a melting point of 127 °C. In addition, in series [1], the IC50 came to 17 nM.

Compound `O=C(N[C@H]1C2CC3CC1C[C@@](O)(C3)C2)N1CCN(c2ccc(N3CCC(O)CC3)cc2)c2ccccc21` [Compound No. 51, Trans-4-[4-(4-Hydroxypiperidin-1-yl)Phenyl]-3,4-dihydro-2H-quinoxaline-1-carboxylic Acid (5-hydroxyadamantan-2-yl)Amide] came in with a melting point of 131 °C.

On to `CC(C)(C)N1CCN(c2ccc(N3CCN(C(=O)NC4C5CC6CC4CC(C(N)=O)(C6)C5)c4ccccc43)nc2)CC1` (centres unmarked) [compound 128], for which the IC50 in series [1] was found to be 4 nM.

Turning to `CC1(C)[C@@H](OC(=O)CCC(=O)O)CC[C@]2(C)[C@H]3C(=O)C=C4[C@@H]5C[C@@](C)(C(=O)O)CC[C@]5(C)CC[C@@]4(C)[C@]3(C)CC[C@@H]12` [carbenoxolone], the “reduction of the intraocular pressure (IOP)” value in series [2] was 18%.

In turn, `CS(=O)(=O)N1CCC(O)(c2ccc(N3CCN(C(=O)N[C@H]4C5CC6CC4C[C@@](O)(C6)C5)c4ccccc43)cc2)CC1` [Compound No. 16, Trans-4-[4-(4-Hydroxy-1-(methanesulphonyl)Piperidin-4-yl)Phenyl]-3,4-dihydro-2H-quinoxaline-1-carboxylic Acid (5-hydroxy-adamantan-2-yl)Amide] returned a melting point of 160 °C. Besides, the IC50 in series [1] was found to be 28 nM.

For `O=C(NC1C2CC3CC1CC(O)(C3)C2)N1CCN(c2ccc(N3CCN(C4CC4)CC3)cn2)c2ccccc21` (centres unmarked) [compound 118], the melting point amounted to 161 °C. For the same compound, in series [1], the IC50 is 8 nM.

`O=C(NC1C2CC3CC1CC(O)(C3)C2)N1CCN(c2ccc(N3CCC(F)(F)CC3)cc2)c2ccccc21` (centres unmarked) [compound 30] showed a melting point of 95 °C. For the same compound, the IC50 in series [1] was determined as 94 nM.

The compound `CS(=O)(=O)N1CC=C(c2ccc(N3CCN(C(=O)NC4C5CC6CC4CC(O)(C6)C5)c4ccccc43)cc2)CC1` (centres unmarked) [compound 15] came in with a melting point of 103 °C. For the same compound, the IC50 in series [1] was 49 nM.

`O=C(NC1C2CC3CC1CC(O)(C3)C2)N1CCN(c2ccc(Oc3nccc(C(F)(F)F)n3)cc2)c2ccccc21` (centres unmarked) [compound 14] gave a melting point of 197 °C. Also, in series [1], the IC50 turned out to be 28 nM.

`O=C(c1ccc(-c2csc(N3CCN(C(=O)NC4C5CC6CC(C5)CC4C6)c4ccccc43)n2)cc1)N1CCOCC1` (centres unmarked) [compound 6] yielded a melting point of 163 to 169 °C. For the same compound, the IC50 in series [1] was 624 nM.

In turn, `CS(=O)(=O)CCN1CCN(c2ccc(N3CCN(C(=O)N[C@H]4C5CC6CC4C[C@@](C(N)=O)(C6)C5)c4ccccc43)nc2)CC1` [compound 178, Trans-4-{5-[4-(2-(Methanesulphonyl)Ethyl)Piperazin-1-yl]-pyridin-2-yl}-3,4-dihydro-2H-quinoxaline-1-carboxylic Acid (5-carbamoyladamantan-2-yl)Amide] displayed a melting point of 204 °C.

Turning to `O=C(NC1C2CC3CC1CC(O)(C3)C2)N1CCN(c2ccc(N3CCN(S(=O)(=O)C4CCC4)CC3)cn2)c2ccccc21` (centres unmarked) [compound 119], the melting point came out at 188 °C. The IC50 in series [1] worked out at 7 nM.

Take `CC(=O)N[C@]12CC3CC(C1)[C@H](NC(=O)N1CCN(c4ccc(N5CCN(S(C)(=O)=O)CC5)cc4)c4ccccc41)C(C3)C2` [Compound No. 137, Trans-4-[4-(4-(Methanesulphonyl)Piperazin-1-yl)Phenyl]-3,4-dihydro-2H-quinoxaline-1-carboxylic Acid (5-acetylaminoadamantan-2-yl)Amide]: the melting point amounted to 250 °C. For the same compound, in series [1], the IC50 was 130 nM.

Compound `CC(C)(CO)N1CCN(c2ccc(N3CCN(C(=O)N[C@H]4C5CC6CC4C[C@@](C(N)=O)(C6)C5)c4ccccc43)cc2)CC1` [compound 152, Trans-4-{4-[4-(2-Hydroxy-1,1-dimethylethyl)Piperazin-1-yl]phenyl}-3,4-dihydro-2H-quinoxaline-1-carboxylic Acid (5-carbamoyladamantan-2-yl)Amide] registered a melting point of 194 to 200 °C.

`CS(=O)(=O)N1CCN(c2ccc(N3CCN(C(=O)N[C@H]4C5CC6CC4C[C@@](F)(C6)C5)c4ccccc43)cc2)CC1` [Compound No. 40, Trans-4-[4-(4-(Methanesulphonyl)Piperazin-1-yl)Phenyl]-3,4-dihydro-2H-quinoxaline-1-carboxylic Acid (5-fluoroadamantan-2-yl)Amide]: the melting point fell in the range of 165 to 200 °C.

On to `O=C(NC1C2CC3CC(C2)CC1C3)N1CCN(c2ccc(OCc3ncccn3)cc2)c2ccccc21` (centres unmarked) [Compound No. 3, 4-[4-(Pyrimidin-2-ylmethoxy)Phenyl]-3,4-dihydro-2H-quinoxaline-1-carboxylic Acid adamantan-2-ylamide], for which the melting point is 123 to 125 °C. Moreover, the IC50 in series [1] was 405 nM.
